Laboratory results as given in patent publication US9938273B2 (Plexxikon Inc., priority 2015, dated 2018).

Target: T1, FLT3-ITD (Homo sapiens, UniProt P36888)
T1 sequence (P36888 1-993): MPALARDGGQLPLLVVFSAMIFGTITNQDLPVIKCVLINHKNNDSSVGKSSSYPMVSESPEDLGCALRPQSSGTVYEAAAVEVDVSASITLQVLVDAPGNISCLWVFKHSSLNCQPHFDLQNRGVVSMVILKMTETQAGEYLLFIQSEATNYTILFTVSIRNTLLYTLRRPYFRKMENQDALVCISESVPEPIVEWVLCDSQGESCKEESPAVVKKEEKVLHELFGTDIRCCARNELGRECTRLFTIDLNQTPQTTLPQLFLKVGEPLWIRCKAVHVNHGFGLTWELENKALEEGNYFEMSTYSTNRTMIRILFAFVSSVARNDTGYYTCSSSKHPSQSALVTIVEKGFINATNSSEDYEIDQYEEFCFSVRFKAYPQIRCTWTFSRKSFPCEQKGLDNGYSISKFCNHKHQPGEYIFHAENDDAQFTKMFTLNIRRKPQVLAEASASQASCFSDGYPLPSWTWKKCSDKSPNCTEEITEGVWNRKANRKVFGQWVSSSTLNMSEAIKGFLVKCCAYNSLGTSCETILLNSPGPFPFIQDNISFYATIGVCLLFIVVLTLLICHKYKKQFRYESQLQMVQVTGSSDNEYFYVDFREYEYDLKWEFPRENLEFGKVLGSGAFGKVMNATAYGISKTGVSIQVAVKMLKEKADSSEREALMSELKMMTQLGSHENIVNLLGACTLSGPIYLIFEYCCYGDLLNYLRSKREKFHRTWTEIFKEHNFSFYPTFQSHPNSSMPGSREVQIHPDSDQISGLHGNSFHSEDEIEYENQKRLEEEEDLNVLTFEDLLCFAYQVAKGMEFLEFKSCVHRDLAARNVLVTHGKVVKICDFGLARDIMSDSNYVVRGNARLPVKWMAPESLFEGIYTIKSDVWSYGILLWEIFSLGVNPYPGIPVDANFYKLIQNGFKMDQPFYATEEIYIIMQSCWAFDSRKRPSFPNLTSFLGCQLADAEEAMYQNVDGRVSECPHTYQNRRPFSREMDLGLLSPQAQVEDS
Experiment: AlphaScreen kinase assay with recombinant enzyme, FLT3-ITD
Format: biochemical
Settings: 8pt; read-out: FLT3_ITD 8pt: IC50
Summary of the method: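 Tyrosine phosphorylation of biotin-poly(Glu4-Tyr) substrate by recombinant enzyme is detected with PY20 acceptor and streptavidin donor beads after room-temperature incubations of 20 and 60 min. IC50 values were derived at a final 10 μM (FLT3-D835Y, FLT3-ITD) or 100 μM (c-KIT).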

Row | Compound | IC50 [µM]
1 | CC(=O)NC1CCN(C(=O)c2cccc(-c3cnc4[nH]c(-c5ccc(F)cc5)cc4c3)c2)CC1 [Compound P-0001, N-[1-[3-[2-(4-fluorophenyl)-1H-pyrrolo[2,3-b]pyridin-5-yl]benzoyl]-4-piperidyl]acetamide] | 10 to 50
2 | CON(C)C(=O)c1cccc(-c2cnc3[nH]c(-c4ccccc4)cc3c2)c1 [Compound P-0002, N-methoxy-N-methyl-3-(2-phenyl-1H-pyrrolo[2,3-b]pyridin-5-yl)benzamide] | 0.0001 to 10
3 | NC1CN(C(=O)c2n[nH]c3ccc(-c4cnc5[nH]c(-c6ccccc6)cc5c4)cc23)C1 [Compound P-0029, (3-aminoazetidin-1-yl)-[5-(2-phenyl-1H-pyrrolo[2,3-b]pyridin-5-yl)-1H-indazol-3-yl]methanone] | 0.0001 to 10
4 | CNC(=O)C1CCN(C(=O)c2cccc(-c3cnc4[nH]c(-c5ccccc5)cc4c3)n2)CC1 [Compound P-0030, N-methyl-1-[6-(2-phenyl-1H-pyrrolo[2,3-b]pyridin-5-yl)pyridine-2-carbonyl]piperidine-4-carboxamide] | 0.0001 to 10
5 | CCNC(=O)NC1CCN(C(=O)c2cccc(-c3cnc4[nH]c(-c5ccccc5)cc4c3)n2)CC1 [Compound P-0031, 1-ethyl-3-[1-[6-(2-phenyl-1H-pyrrolo[2,3-b]pyridin-5-yl)pyridine-2-carbonyl]-4-piperidyl]urea] | 0.0001 to 10
6 | CS(=O)(=O)NC1CCN(C(=O)c2cccc(-c3cnc4[nH]c(-c5ccccc5)cc4c3)n2)CC1 [Compound P-0032, N-[1-[6-(2-phenyl-1H-pyrrolo[2,3-b]pyridin-5-yl)pyridine-2-carbonyl]-4-piperidyl]methanesulfonamide] | 0.0001 to 10
7 | Cc1ccc(-c2cnc3[nH]c(-c4ccccc4)cc3c2)nc1C(=O)N1CCC(N)CC1 [Compound P-0033, (4-amino-1-piperidyl)-[3-methyl-6-(2-phenyl-1H-pyrrolo[2,3-b]pyridin-5-yl)-2-pyridyl]methanone] | 0.0001 to 10
8 | NC1CCN(c2cccc3ccc(-c4cnc5[nH]c(-c6ccccc6)cc5c4)nc23)CC1 [Compound P-0034, 1-[2-(2-phenyl-1H-pyrrolo[2,3-b]pyridin-5-yl)-8-quinolyl]piperidin-4-amine] | 0.0001 to 10
9 | Cc1ccc(-c2cnc3[nH]c(-c4ccccc4)cc3c2)cc1C(=O)N1CCC(N)CC1 [Compound P-0035, (4-amino-1-piperidyl)-[2-methyl-5-(2-phenyl-1H-pyrrolo[2,3-b]pyridin-5-yl)phenyl]methanone] | 0.0001 to 10
10 | N[C@H]1CCN(C(=O)c2cccc(-c3cnc4[nH]c(-c5ccccc5)cc4c3)c2)C1 [Compound P-0036, [(3S)-3-aminopyrrolidin-1-yl]-[3-(2-phenyl-1H-pyrrolo[2,3-b]pyridin-5-yl)phenyl]methanone] | 0.0001 to 10
11 | NC1CCN(C(=O)c2cc(-c3cnc4[nH]c(-c5ccccc5)cc4c3)ccn2)CC1 [Compound P-0038, (4-amino-1-piperidyl)-[4-(2-phenyl-1H-pyrrolo[2,3-b]pyridin-5-yl)-2-pyridyl]methanone] | 0.0001 to 10
12 | O=C(NC1CCNCC1)c1n[nH]c2ccc(-c3cnc4[nH]c(-c5ccccc5)cc4c3)cc12 [Compound P-0039, 5-(2-phenyl-1H-pyrrolo[2,3-b]pyridin-5-yl)-N-(4-piperidyl)-1H-indazole-3-carboxamide] | 0.0001 to 10
13 | CNC1CCN(C(=O)c2cccc(-c3cnc4[nH]c(-c5ccccc5)cc4c3)n2)CC1 [Compound P-0041, [4-(methylamino)-1-piperidyl]-[6-(2-phenyl-1H-pyrrolo[2,3-b]pyridin-5-yl)-2-pyridyl]methanone] | 0.0001 to 10
14 | NC1CCN(C(=O)c2c[nH]c3ccc(-c4cnc5[nH]c(-c6ccccc6)cc5c4)cc23)CC1 [Compound P-0042, (4-amino-1-piperidyl)-[5-(2-phenyl-1H-pyrrolo[2,3-b]pyridin-5-yl)-1H-indol-3-yl]methanone] | 0.0001 to 10
15 | O=C(c1cccc(-c2cnc3[nH]c(-c4ccccc4)cc3c2)n1)C1CCNCC1 [Compound P-0043, [6-(2-phenyl-1H-pyrrolo[2,3-b]pyridin-5-yl)-2-pyridyl]-(4-piperidyl)methanone] | 0.0001 to 10
16 | CNC1CCN(C(=O)c2n[nH]c3ccc(-c4cnc5[nH]c(-c6ccccc6)cc5c4)cc23)CC1 [Compound P-0044, [4-(methylamino)-1-piperidyl]-[5-(2-phenyl-1H-pyrrolo[2,3-b]pyridin-5-yl)-1H-indazol-3-yl]methanone] | 0.0001 to 10

Row | Compound | IC50 [µM]
17 | O=C(NC1CCNC1)c1cccc(-c2cnc3[nH]c(-c4ccccc4)cc3c2)n1 (stereo not shown) [Compound P-0045, 6-(2-phenyl-1H-pyrrolo[2,3-b]pyridin-5-yl)-N-pyrrolidin-3-yl-pyridine-2-carboxamide] | 0.0001 to 10
18 | N[C@H]1CCN(C(=O)c2cc(-c3cnc4[nH]c(-c5ccccc5)cc4c3)ccn2)C1 [Compound P-0046, [(3S)-3-aminopyrrolidin-1-yl]-[4-(2-phenyl-1H-pyrrolo[2,3-b]pyridin-5-yl)-2-pyridyl]methanone] | 0.0001 to 10
19 | NC1CCC(C(=O)N2Cc3c(cccc3-c3cnc4[nH]c(-c5ccccc5)cc4c3)C2=O)C1 (stereo not shown) [Compound P-0047, 2-(3-aminocyclopentanecarbonyl)-4-(2-phenyl-1H-pyrrolo[2,3-b]pyridin-5-yl)isoindolin-1-one] | 0.0001 to 10
20 | N[C@H]1CCN(C(=O)c2csc(-c3cnc4[nH]c(-c5ccccc5)cc4c3)n2)C1 [Compound P-0048, [(3S)-3-aminopyrrolidin-1-yl]-[2-(2-phenyl-1H-pyrrolo[2,3-b]pyridin-5-yl)thiazol-4-yl]methanone] | 0.0001 to 10
21 | c1ccc(-c2cc3cc(-c4ccc5[nH]nc(NC6CNC6)c5c4)cnc3[nH]2)cc1 [Compound P-0053, N-(azetidin-3-yl)-5-(2-phenyl-1H-pyrrolo[2,3-b]pyridin-5-yl)-1H-indazol-3-amine] | 0.0001 to 10
22 | c1ccc(-c2cc3cc(-c4ccc5[nH]nc(NC6CCNCC6)c5c4)cnc3[nH]2)cc1 [Compound P-0056, 5-(2-phenyl-1H-pyrrolo[2,3-b]pyridin-5-yl)-N-(4-piperidyl)-1H-indazol-3-amine] | 0.0001 to 10
23 | N=C(N)N1CCN(C(=O)c2cccc(-c3cnc4[nH]c(-c5ccccc5)cc4c3)n2)CC1 [Compound P-0057, 4-[6-(2-phenyl-1H-pyrrolo[2,3-b]pyridin-5-yl)pyridine-2-carbonyl]piperazine-1-carboxamidine] | 0.0001 to 10
24 | c1ccc(-c2cc3cc(-c4ccc5[nH]nc(NC6CCNC6)c5c4)cnc3[nH]2)cc1 (stereo not shown) [Compound P-0059, 5-(2-phenyl-1H-pyrrolo[2,3-b]pyridin-5-yl)-N-pyrrolidin-3-yl-1H-indazol-3-amine] | 0.0001 to 10
25 | NC1CCCN(C(=O)c2cccc(-c3cnc4[nH]c(-c5ccccc5)cc4c3)n2)C1 (stereo not shown) [Compound P-0067, (3-amino-1-piperidyl)-[6-(2-phenyl-1H-pyrrolo[2,3-b]pyridin-5-yl)-2-pyridyl]methanone] | 0.0001 to 10
26 | O=C(c1cccc(-c2cnc3[nH]c(-c4ccccc4)cc3c2)n1)N1CCC(O)C1 (stereo not shown) [Compound P-0068, (3-hydroxypyrrolidin-1-yl)-[6-(2-phenyl-1H-pyrrolo[2,3-b]pyridin-5-yl)-2-pyridyl]methanone] | 0.0001 to 10
27 | O=C(c1cccc(-c2cnc3[nH]c(-c4ccccc4)cc3c2)n1)N1CCCC(O)C1 (stereo not shown) [Compound P-0069, (3-hydroxy-1-piperidyl)-[6-(2-phenyl-1H-pyrrolo[2,3-b]pyridin-5-yl)-2-pyridyl]methanone] | 0.0001 to 10
28 | NC1CCN(C(=O)c2n[nH]c3ccc(-c4cnc5[nH]c(C6=CCN(C(=O)C7CC7)C6)cc5c4)cc23)CC1 [Compound P-0074, (4-amino-1-piperidyl)-[5-[2-[1-(cyclopropanecarbonyl)-2,5-dihydropyrrol-3-yl]-1H-pyrrolo[2,3-b]pyridin-5-yl]-1H-indazol-3-yl]methanone] | 0.0001 to 10
29 | CN(C(=O)c1cccc(-c2cnc3[nH]c(-c4ccccc4)cc3c2)n1)C1CCNC1 (stereo not shown) [Compound P-0076, N-methyl-6-(2-phenyl-1H-pyrrolo[2,3-b]pyridin-5-yl)-N-pyrrolidin-3-yl-pyridine-2-carboxamide] | 0.0001 to 10
30 | CNC1CCCN(C(=O)c2cccc(-c3cnc4[nH]c(-c5ccccc5)cc4c3)n2)C1 (stereo not shown) [Compound P-0080, [3-(methylamino)-1-piperidyl]-[6-(2-phenyl-1H-pyrrolo[2,3-b]pyridin-5-yl)-2-pyridyl]methanone] | 0.0001 to 10
31 | CC1(N)CCN(C(=O)c2cccc(-c3cnc4[nH]c(-c5ccccc5)cc4c3)n2)CC1 [Compound P-0081, (4-amino-4-methyl-1-piperidyl)-[6-(2-phenyl-1H-pyrrolo[2,3-b]pyridin-5-yl)-2-pyridyl]methanone] | 0.0001 to 10
